In patent US8871735B2, “Methods and compositions for providing cardiac protection” (University of Medicine and Dentistry of New Jersey, priority 2008, dated 2014):

Legend:
AC = assay: cAMP production in membrane preparations from mouse heart; format: biochemical; conditions: 50 μM forskolin, 10 μM drug
Method: Such membrane permeability was examined using whole cell, which is addressed in FIG. 11b). cAMP production was measured with 50 μM forskolin in the presence or absence of 10 μM of the indicated drugs. n=2. (b) cAMP accumulation is shown in H9C2 cells. […] Ara-Ade (Adenine 9-β-D-arabinofuranoside) is an anti-herpes simplex drug. Fludarabine ((+)-2-Fluoro-9-(5-O-phosphono-β-D-arabinofuranosyl)-9H-purin-6-amine) and Cladribine (2-chloro-2′-deoxyadenosine) are anti-cancer drugs, Adefovir (Bis(2,2-dimethylpropanoyloxymethyl)[2-(6-amino-9H-purin-9-yl)ethoxymethyl]phosphonate) and Zidovudine are anti-HIV drugs. Zidovudine-TP is a metabolite of zidovudine which inhibits virus replication. TP; triphosphate. 3-Deazaadenosine, Formycin A (7-Amino-3-(β-D-ribofuranosyl)-1H-pyrazolo[4,3-d]pyrimidine), 2-Far (2-Fluoroadenosine), formycin A ((2S,3R,4S,5R)-2-(7-amino-2H-pyrazolo[5,4-e]pyramidin-3-yl-5-(hydroxymeth-yl)oxolane-3,4-diol), 2-FD (2-Fluoro-2′-deoxyadenosine) and 2′5′ ddAdo (2′5′-dideoxyadenosine) are experimental drugs.
Various compounds with adenine-like backbone structure were screened because this structure is essential for both AC inhibition and plasma membrane permeability. Drug effects on AC activity was examined by using membrane preparations from mouse heart and striatum, in which AC5 provides 20% and 80% of total AC activity, respectively. […]

H9C2 cells = assay: cAMP accumulation in H9C2 cells; format: cell-based; conditions: 5 μM ISO, 3 minutes, 10 μM drug
Excerpt: […] Fludarabine ((+)-2-Fluoro-9-(5-O-phosphono-β-D-arabinofuranosyl)-9H-purin-6-amine) and Cladribine (2-chloro-2′-deoxyadenosine) are anti-cancer drugs, Adefovir (Bis(2,2-dimethylpropanoyloxymethyl)[2-(6-amino-9H-purin-9-yl)ethoxymethyl]phosphonate) and Zidovudine are anti-HIV drugs. Zidovudine-TP is a metabolite of zidovudine which inhibits virus replication. TP; triphosphate. 3-Deazaadenosine, Formycin A (7-Amino-3-(β-D-ribofuranosyl)-1H-pyrazolo[4,3-d]pyrimidine), 2-Far (2-Fluoroadenosine), formycin A ((2S,3R,4S,5R)-2-(7-amino-2H-pyrazolo[5,4-e]pyramidin-3-yl-5-(hydroxymeth-yl)oxolane-3,4-diol), 2-FD (2-Fluoro-2′-deoxyadenosine) and 2′5′ ddAdo (2′5′-dideoxyadenosine) are experimental drugs.
(§1) Mice were anesthetized with 2.5% tribromoethanol (0.010 to 0.015 mL per gram of body weight) injected intraperitoneally, and echocardiography was performed with ultrasonography (ACUSON Sequoia C256, Siemens Medical Solutions, Malvern, Pa.). For acute injection of isoproterenol, forskolin and milrinon, a PE-10 catheter was inserted into the right jugular vein, and drugs were injected at the rate of 1 μl/s. cAMP accumulation assay in H9C2 cells, a cardiac myoblast cell line, was examined as previously described.

[1] = system: C57Bl/6 mice motor function; assay: Rotarod performance test and pole test; format: in vivo, mouse; conditions: Ara-Ade by mini-osmotic pump; MPTP 30 mg/kg i.p. daily for 5 days
Method: In C57Bl/6 mice, Ara-Ade was chronically infused with an osmotic mini-pump at the indicated doses for 5 days. a) Each mouse was placed on a rod subjected to evaluate Rotarod performance. Mice were left for 1 min on the rod for habituation. The rod rotated gradually increasing from 4 to 40 rpm over the course of 5 min, and the time that mice could stay without failing was recorded. Five trials were conducted for each individual 10-25 min apart. As a positive control, 1-methyl 4-phenyl 1,2,3,6-tetrahydropyridine (MPTP) was intraperitoneally injected for the indicated dose for 5 days. *, p<0.01 relative to vehicle. #, p<0.05 relative to vehicle. n=6-7. b) To evaluate bradykinesia, a pole test was performed. Mice were placed head upward on the top of a rough surfaced pole that was wrapped with gauze to prevent slipping. The time until the mouse turned completely downward (open bars, TTURN) and the time until it climbed down to the floor (closed bars, TLA) were measured.
Four days after the implantation, Rotarod performance test and pole test were examined as previously described. For MPTP injection (1-methyl 4-phenyl 1,2,3,6-tetrahydropyridine), mice were injected intraperitoneally (i.p.) with 0.1 mL of PBS or MPTP dissolved in PBS at 24-hour intervals for 5 days. The daily dose of MPTP was 30 mg/kg. […]

AC5 [2] = conditions: cited from earlier work
cardiac myocytes [3] = conditions: cited from earlier work
AC2 [4] = molecular target: AC2 (UniProt P26769); assay: AC inhibition, recombinant AC proteins: AC2; format: biochemical
AC3 = molecular target: T1, AC3 (Rattus norvegicus, UniProt P21932); assay: AC inhibition, recombinant AC proteins: AC3; format: biochemical
T1 construct: made in house

AC5 [5] = molecular target: T2, AC5 (UniProt P30803); assay: AC inhibition, recombinant AC proteins: AC5; format: biochemical; conditions: recombinant AC proteins; read-out: IC50 AC5
T2 construct: IC50 AC5; other: recombinant AC proteins; other: THFA: in the presence of Gs-α/GTPαS/forskolin

AC5 [6] = assay: AC inhibition, recombinant AC proteins: AC5; format: biochemical
cardiac myocytes [7] = assay: ISO-stimulated cAMP accumulation in cultured cardiac myocytes; format: cell-based, mouse; conditions: 10 μM compound
cardiac myocytes [8] = assay: ISO-induced apoptosis in cultured cardiac myocytes (DNA fragmentation ELISA); format: cell-based; conditions: 100 μM ISO, 48 h
Method: Cultured cardiac myocytes were incubated with 100 μM ISO in the presence or absence of AC5 inhibitors at the indicated concentrations for 48 h.

cardiac myocytes [9] = assay: ISO-induced cell contraction in cultured cardiac myocytes; format: cell-based; conditions: 10 μM
AC2 [10] = conditions: previously noted; cited from earlier work
[11] = system: C57Bl/6 mice, chronic ISO infusion; assay: Chronic ISO infusion heart failure model; format: in vivo, mouse; conditions: for ISO-induced decrease in LVEF (and FS): ISO 60 mg/kg/d 7 days, Ara-Ade 20 and 100 mg/kg/day, 2′5′ ddAdo 20 mg/kg/day
Excerpt: (§2) ISO with or without AC5 inhibitors were chronically infused with osmotic mini-pump implanted subcutaneously at indicated doses for 1 week in c57Bl/6 mice. Mice were then subjected to echocardiography (a) and the hearts were removed and subjected to pathological examinations such as myocardial apoptosis (b) and fibrosis (c). n=4-8.
(§3) In C57Bl/6 mice, ISO with or without AC5 inhibitors or metoprolol were chronically infused with an osmotic mini-pump at the indicated doses for 1 week. Mice were then subjected to echocardiography (a) and heart tissue were subjected to a myocardial apoptosis assay (b). *, p<0.01 vs vehicle. #, p<0.05 vs vehicle. .dagger., p<0.01 vs ISO. .dagger-dbl., p<0.05 vs ISO. n=4-15. […] Comparisons between multiple groups were made using ANOVA with post-hoc tests.
Tenofovir diphosphate (PMPA-PP), zidovudine monophosphate (MP), zidovudine diphosphate (PP), zidovudine triphosphate (TP), famciclovir penciclovir and valaciclovir were purchased from Moravek. Formycin A (FMA) and Formycin B (FMB) were purchased from Berry and Associates. All other reagents were from Sigma unless specified. Long-term infusion of isoproterenol (Sigma, St. Louis, Mo.) was performed for 7 days at a dose of 60 mg/kg/d with or without AC5 inhibitors by using a miniosmotic pump (ALZET model 2001, DURECT Corp, Cupertino, Calif.). Control mice received vehicle in pumps. Pumps were removed 24 hours before biochemical and physiological studies. Experiments were performed in 3- to 5-month-old male C57Bl/6, and in AC5Tg transgenic mice. This study was approved by the Animal Care and Use Committee at New Jersey Medical School.
as §1

mice = assay: Basal cardiac function (echocardiography) under chronic drug infusion alone; format: in vivo, mouse; conditions: chronic infusion of drug alone (3 days to 1 week)
Excerpt: as §2, §3
as §1, with “described. […]” for “described.”

patients = conditions: BHAT; cited from earlier work
[12] = system: isolated perfused rat hearts; conditions: cited from earlier work

T1 sequence (P21932 whole entry): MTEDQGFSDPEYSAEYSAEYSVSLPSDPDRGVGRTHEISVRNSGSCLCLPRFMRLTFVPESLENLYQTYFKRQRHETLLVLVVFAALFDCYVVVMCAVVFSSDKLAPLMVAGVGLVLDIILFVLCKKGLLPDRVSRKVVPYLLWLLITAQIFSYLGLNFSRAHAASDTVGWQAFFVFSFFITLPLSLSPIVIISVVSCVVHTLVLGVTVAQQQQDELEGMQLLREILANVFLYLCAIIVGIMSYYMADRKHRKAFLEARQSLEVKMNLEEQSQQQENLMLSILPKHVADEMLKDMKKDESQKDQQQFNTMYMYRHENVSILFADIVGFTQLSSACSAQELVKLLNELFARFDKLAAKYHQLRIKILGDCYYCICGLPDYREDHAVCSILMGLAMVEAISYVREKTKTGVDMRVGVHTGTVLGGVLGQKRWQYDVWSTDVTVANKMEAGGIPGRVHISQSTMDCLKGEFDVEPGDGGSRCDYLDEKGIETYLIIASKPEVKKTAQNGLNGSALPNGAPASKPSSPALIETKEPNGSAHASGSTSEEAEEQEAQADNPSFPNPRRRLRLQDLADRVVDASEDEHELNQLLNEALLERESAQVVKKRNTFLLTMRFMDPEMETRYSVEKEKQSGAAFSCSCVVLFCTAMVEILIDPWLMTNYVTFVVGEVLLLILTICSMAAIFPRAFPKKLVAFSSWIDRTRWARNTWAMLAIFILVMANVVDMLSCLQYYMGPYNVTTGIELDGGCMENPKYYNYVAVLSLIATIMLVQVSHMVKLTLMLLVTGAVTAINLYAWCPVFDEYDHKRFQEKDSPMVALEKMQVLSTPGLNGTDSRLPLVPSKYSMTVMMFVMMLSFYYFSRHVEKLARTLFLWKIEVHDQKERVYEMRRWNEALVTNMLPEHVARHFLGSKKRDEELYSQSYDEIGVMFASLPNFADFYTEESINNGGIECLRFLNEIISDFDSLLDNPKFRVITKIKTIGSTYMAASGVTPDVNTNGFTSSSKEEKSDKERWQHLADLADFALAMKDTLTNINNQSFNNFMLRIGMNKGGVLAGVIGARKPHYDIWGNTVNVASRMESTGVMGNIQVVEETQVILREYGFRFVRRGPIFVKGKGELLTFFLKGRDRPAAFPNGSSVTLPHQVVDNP

With `Nc1nccc2c1ncn2[C@@H]1O[C@H](CO)[C@@H](O)[C@H]1O` [3-deazaadenosine, 3-Deazaadenosine] the “ratio of inhibition between the heart membrane and the striatum membrane” value (AC) was “less than one” and the “inhibition of cAMP accumulation in H9C2 cells” value (H9C2 cells) was “little inhibition”.

In the case of `CN1CC=C(c2ccccc2)CC1` [MPTP, 1-methyl 4-phenyl 1,2,3,6-tetrahydropyridine], the “Rotarod and pole test performance” value [1] is reported as “significantly impaired”.

In the case of `Nc1ncc2c(n1)CC(c1ccco1)CC2=O` (stereo not drawn) [NKY80, 2-amino-7-(2-furanyl)-7,8-dihydro-5(6H)-quinazoline], the “inhibition of purified AC5 protein in vitro” value (AC5 [2]) is given as “moderate inhibition” and the “inhibition of cAMP accumulation in cultured cardiac myocytes” value (cardiac myocytes [3]) is given as “did not inhibit cAMP accumulation”.

With `Nc1ncnc2c1ncn2C1CCC(C(=O)NO)C1` (stereo not drawn) [PMC-6] the IC50 (AC2 [4]) was 65.3 µM, the IC50 (AC3) was 11.1 µM and the IC50 (AC5 [5]) was 0.32 µM. For the same compound, the “Selectivity ratio for AC5, AC5/AC2” value (AC5 [6]; ratio of IC50 for AC5 to that for AC2) was 0.0049, the “Selectivity ratio for AC5, AC5/AC3” value (AC5 [6]; ratio of IC50 for AC5 to that for AC3) was 0.029 and the “decrease in ISO-induced cAMP production / accumulation in cultured cardiac myocytes” value (cardiac myocytes [7]) was 50%. The “ISO-induced apoptosis in cultured cardiac myocytes” value (cardiac myocytes [8]) was “abolished” and the “inhibition of ISO-induced cell contraction” value (cardiac myocytes [9]) was “did not inhibit”.

In the case of `Nc1ncnc2c1ncn2C1CCCO1` (stereo not drawn) [THFA, 9-(tetrahydro-2-furyl)adenine], the “selectivity ratio between AC5 and AC2” value (AC5 [6]) is given as 130 and the “selectivity ratio between AC6 and AC2” value (AC2 [10]) is given as 1.8.

In the case of `COCCc1ccc(OCC(O)CNC(C)C)cc1` (stereo not drawn) [metoprolol], the “ISO-induced decrease in LVEF (and FS)” value [11] is reported as “attenuated ISO-induced cardiac dysfunction”, the “ISO-induced decrease in LVEF (and FS)” value ([11]; listed as Metoprolol) is reported as “rescued ISO-induced LVEF decrease” and the “HR decreased by chronic ISO” value ([11]; chronic ISO infusion) is reported as “rescue decreased HR”. The “ISO-induced myocardial apoptosis in vivo” value ([11]; chronic ISO infusion) was “to a lesser degree than Ara-Ade”, the “ISO-induced wall thickening (DESP, DPW)” value ([11]; chronic ISO infusion) was “did not show significant increase” and the “basal LVEF” value (mice) was “decreased”.

For `CC(C)NCC(O)COc1cccc2ccccc12` (stereo not drawn) [propranolol], the “decrease of sudden cardiac death, patients with a history of HF” value (patients) is listed as 47%, the “decrease of sudden cardiac death, patients with a history of MI” value (patients) is listed as 28% and the “arrhythmia in low flow perfusion / NE model” value [12] is listed as “effectively reduced arrhythmia”.
